Numbers after ± are expanded uncertainties.
Test: not given
Conditions: 293.15 K; 101.33 kPa; Liquid; Vibrating tube method

| mass density | SMILES |
| --- | --- |
| 1027.9 ± 0.9 kg/m3 | CC(=O)c1ccccc1 [acetophenone] |
| 1055.25 ± 0.95 kg/m3 | CCOC(=O)CC(=O)OCC [diethyl 1,3-propanedioate] |
| 877.15 ± 0.24 kg/m3 | CCCCC(=O)OCC [ethyl pentanoate] |
| 999.7 ± 0.08 kg/m3 | O [water] |

Same assay, conditions: 298.15 K; 101.33 kPa; Liquid; Vibrating tube method

| mass density | SMILES |
| --- | --- |
| 952.6 ± 0.24 kg/m3 | CCCC(=O)O [butanoic acid] |
| 873.25 ± 0.7 kg/m3 | CCCC(=O)OCC [ethyl butanoate] |
| 825.95 ± 0.24 kg/m3 | CCCCCCCCO [octan-1-ol] |

Same assay, conditions: Liquid; Ebulliometric method (Recirculating still)

| Normal boiling temperature | SMILES |
| --- | --- |
| 202.0 ± 0.2 °C | CC(=O)c1ccccc1 [acetophenone] |
| 163.7 ± 0.2 °C | CCCC(=O)O [butanoic acid] |
| 199.90 ± 0.2 °C | CCOC(=O)CC(=O)OCC [diethyl 1,3-propanedioate] |
| 121.40 ± 0.2 °C | CCCC(=O)OCC [ethyl butanoate] |
| 146.2 ± 0.2 °C | CCCCC(=O)OCC [ethyl pentanoate] |
| 195.1 ± 0.2 °C | CCCCCCCCO [octan-1-ol] |
| 100.10 ± 0.2 °C | O [water] |

Test: refractive index (Na D-line) (dimensionless)
Conditions: 293.15 K; 101.33 kPa; Liquid; Standard Abbe refractometry

| refractive index | SMILES |
| --- | --- |
| 1.5361 ± 0.012 | CC(=O)c1ccccc1 [acetophenone] |
| 1.3982 ± 0.012 | CCCC(=O)O [butanoic acid] |
| 1.4135 ± 0.012 | CCOC(=O)CC(=O)OCC [diethyl 1,3-propanedioate] |
| 1.4125 ± 0.012 | CCCCC(=O)OCC [ethyl pentanoate] |
| 1.428 ± 0.012 | CCCCCCCCO [octan-1-ol] |
| 1.3325 ± 0.012 | O [water] |

Same assay, conditions: 298.15 K; 101.33 kPa; Liquid; Standard Abbe refractometry

| refractive index | SMILES |
| --- | --- |
| 1.3891 ± 0.012 | CCCC(=O)OCC [ethyl butanoate] |

From the NIST ThermoML archive (doi:10.1016/j.fluid.2014.03.008)
